Source: US5587374A, “10(1-hydroxyethyl)-11-oxo-1-azatricyclo/7.2.0.0.^3.8/ undec-2-ene-2-carboxylic acid esters and a process for preparing thereof” (Glaxo SpA, priority 1990, dated 1996)

How the values were obtained:
[1] = system: E. Coli; test: protection tests using mice, orally administered compounds (E. Coli); assay type: in vivo, mice infected with E. Coli; conditions: Escherichia coli, oral, protection test
[2] = oral administration to mice, adverse effects; assay type: in vivo; conditions: orally administered, doses up to 1000 mg/kg
From the text: The compounds of the invention are also essentially non-toxic at therapeutically useful dose levels.

[3] = system: Staph. aureus; test: protection tests using mice, orally administered compounds (Staph. aureus); conditions: Staphylococcus aureus, in Mus musculus, po, read-out: ED50 Staph. aureus

Row | SMILES | ED50 [1] | adverse effects [2] | ED50 [3]
1 | CO[C@H]1CCC[C@H]2C1=C(C(=O)OC(C)OC(=O)OC1CCCCC1)N1C(=O)[C@H]([C@@H](C)O)[C@@H]21 (stereo partly drawn) [Example 1, 1-(Cyclohexyloxycarbonyloxy)ethyl (4S,8S,9R,10S,12R)-4-methoxy-10-(1'-hydroxyethyl)-11-oxo-1-azatricyclo-[7.2.0.0^3,8]undec-2-ene-2-carboxylate] | < 1 mg/kg | no adverse effects were observed | < 1 mg/kg
2 | CO[C@H]1CCC[C@H]2C1=C(C(=O)OC(C)OC(=O)OC(C)C)N1C(=O)[C@H]([C@@H](C)O)[C@@H]21 (stereo partly drawn) [Example 3, 1-(Isopropyloxycarbonyloxy)ethyl (4S,8S,9R,10S,12R)-4-methoxy-10-(1'-hydroxyethyl)-11-oxo-1-azatricyclo-[7.2.0.0^3,8]undec-2-ene-2-carboxylate] | < 1 mg/kg | – | < 1 mg/kg
3 | CO[C@H]1CCC[C@H]2C1=C(C(=O)OCOC(=O)C(C)(C)C)N1C(=O)[C@H]([C@@H](C)O)[C@@H]21 [Example 10, [(1,1-Dimethyl-ethyl)carbonyloxy]methyl (4S,8S, 9R, 10S, 12R) -4-methoxy-10-(1'-hydroxyethyl)-11-oxo-1-azatricyclo[7.2.0.0^3,8]undec-2-ene-2-carboxylate] | < 1 mg/kg | – | < 1 mg/kg
4 | CO/N=C(\C(=O)N[C@@H]1C(=O)N2C(C(=O)OC(C)OC(C)=O)=C(COC(N)=O)CS[C@H]12)c1ccco1 (stereo partly drawn) [Cefuroxime axetil, cefuroxime axetil, reference compound] | 26 mg/kg | – | 6 mg/kg
